{"source": "paper PMC12477080", "about": "“Polychlorinated biphenyls (PCBs) interact with drug metabolism in vivo” (Archives of Toxicology, 2025)", "key": {"CYP1A2": {"system": "CYP1A2", "test": "CYP phenotyping cocktail clinical study: caffeine/paraxanthine metabolic ratio and its association with PCB plasma levels", "method": "(§1) The participants were ascertained not to have any acute disease by medical history, physical examination, laboratory screening, including hematological and biochemical blood tests, and a 12-lead electrocardiogram. […] The demographic data of the subjects are summarized in Table 1 in the supplemental data. At the enrollment visit, 2 blood samples (9 ml each) were collected into ethylenediaminetetraacetic acid (EDTA)-containing tubes taken from each subject for analyzing the plasma concentrations of PCB congeners and for pharmacogenetic analysis.\n(§2) Participants stayed fasted from the evening before until 3 h after drug administration. After that, a meal was provided. Water and juice were permitted but alcoholic and caffeinated beverages were not allowed from the evening before drug administration until the last blood sample was taken on the next day. Venous blood samples (9 ml each) were collected through an intravenous catheter immediately before and 0.25, 0.5, 0.75, 1, 1.5, 2, 2.5, 3, 4, 5, 6, 7, 8, and 24 h after drug administration. Blood was drawn into EDTA-coated tubes, centrifuged at 1500 g for 10 min at 4 °C, and plasma samples were subsequently stored at − 80 °C until further analysis. After completely voiding the bladder immediately before drug administration, the participants collected urine from 0 to 24 h after drug administration. After weighing the collected urine, a 10 ml aliquot of each fraction was taken.\n(§3) Commercially sourced standards and internal standards were used for quantification (see Supplemental Materials). In brief, 20 µl of the plasma samples were protein-precipitated with 80 µl methanol containing all internal standards or were treated for 16 h at 37 °C with 2 µl β-glucuronidase (1,000,000 Units) for deconjugation before protein precipitation with 78 µl methanol containing internal standards. Samples were centrifuged for 20 min, at 4 °C and 17,000 × g, and 40 µl of the supernatants were diluted with 40 µl LC–MS grade water, centrifuged again for 5 min at 4 °C and 17,000 × g and 50 µl supernatant were transferred to LC–MS vials 5 µl of the samples were injected into the LC–MS system.\nAn Agilent 1290 Infinity II UHPLC coupled with a SCIEX QTRAP6500 + triple quadrupole mass spectrometer was used. […]\nPartial areas under the plasma concentration–time curves from 0 to 3 h (AUC0–3 h), from 0 to 4 h (AUC0–4 h), and from 0 to 8 h (AUC0–8 h) were calculated based on measured concentrations by the linear trapezoidal rule without extrapolation. […] Metabolic ratios (MR) were calculated by dividing the partial AUC of the metabolite by the respective partial AUC of the parent drug. […]"}, "[1]": {"test": "Determination of PCB concentrations in plasma of HELPcB and control participants", "format": "in vivo", "settings": "human plasma", "method": "The laboratory regularly participates in round robins for the determination of PCBs in plasma (www.g-equas.de).\nPlasma concentrations of PCB congeners were quantified in blood samples from all participants using gas chromatography/mass spectrometry (GC–MS) (Fig. 2A and Supplementary Table 2). A total of 19 PCB congeners were measured in control (n = 10) and HELPcB (n = 10) participants, with PCBs detected in all individuals. […] In the control group, PCB plasma concentrations primarily reflected background environmental exposure, such as dietary intake, representing the general population’s burden."}, "CYP2C9": {"system": "CYP2C9", "test": "CYP phenotyping cocktail clinical study: torsemide/OH-torsemide metabolic ratio and its association with PCB plasma levels", "settings": "linear regression of MR AUC0–8 h OH-torsemide/torsemide (CYP2C9 activity) on PCB plasma concentration", "method": "as §1, §2, §3\n(§4) An Agilent 1290 Infinity II UHPLC coupled with a SCIEX QTRAP6500 + triple quadrupole mass spectrometer was used. Chromatographic separation was achieved on an Agilent Poroshell 120 EC-C18 (1.9 µm, 2.1 × 50 mm) column with A: 0.1% formic acid in water and B: methanol with a flow rate of 0.7 ml/min and a total run time of 8.5 min. Analytes were eluted using a gradient program. The following gradient steps represent gradual changes in % B over time: 5% B from 0 to 0.2 min, 30% B at 2 min, 34% B at 4.8 min, 95% B at 6.5 min, 95% B at 7.5 min and re-equilibrating to 5% B at 7.7 min and 5%B till 8.5 min. A representative chromatogram is shown in supplemental Fig. 2. The scheduled MRM mode was applied for analyte detection in both positive and negative ESI modes (Supplementary Table 4). Calibration curves were constructed with linear regression using weighted (1/x^2) models (detailed information in supplemental methods).\n(§5) Partial areas under the plasma concentration–time curves from 0 to 3 h (AUC0–3 h), from 0 to 4 h (AUC0–4 h), and from 0 to 8 h (AUC0–8 h) were calculated based on measured concentrations by the linear trapezoidal rule without extrapolation. […] Metabolic ratios (MR) were calculated by dividing the partial AUC of the metabolite by the respective partial AUC of the parent drug. The MRs were used as biomarkers for the individual CYP activities of the study subjects."}, "CYP1A2 mRNA": {"system": "CYP1A2 mRNA", "test": "CYP1A2 mRNA expression in primary human hepatocytes (qRT-PCR)", "format": "cell-based", "settings": "three donors, 48 h exposure, PCB118 0.1–0.5 µM, omeprazole positive control"}, "CYP2D6": {"system": "CYP2D6", "test": "CYP phenotyping cocktail clinical study: metoprolol/α-OH-metoprolol metabolic ratio and its association with PCB plasma levels", "settings": "linear regression of MR AUC0–8 h α-OH-metoprolol/metoprolol (CYP2D6 activity) on PCB plasma concentration", "method": "as §1, §2, §3, §4, §5"}}, "data": [{"smiles": "Clc1ccc(-c2cc(Cl)c(Cl)cc2Cl)cc1Cl", "note": "[PCB118]", "values": [{"measurement": "association with CYP1A2 activity in hierarchical generalized mixed model", "setting": "CYP1A2; adjusted for co-factors (smoking status, gender, BMI, age)", "value": "became significant when smoking status was included as a co-factor"}, {"measurement": "proportion of variability in CYP1A2 activity explained", "setting": "CYP1A2; linear regression, MR paraxanthine/caffeine on PCB118 plasma concentration", "value": "~ 15.5%"}, {"measurement": "PCB plasma concentration, Mean [±SD] HELPcB", "setting": "[1]; HELPcB (occupationally exposed) group", "value": "0.122 ± 0.122", "unit": "ng/mL"}, {"measurement": "PCB plasma concentration, Geometric mean, HELPcB", "setting": "[1]; HELPcB group, N 10", "value": 0.075, "unit": "ng/mL"}, {"measurement": "PCB plasma concentration, Mean [±SD] all", "setting": "[1]; all participants", "value": "0.072 ± 0.099", "unit": "ng/mL"}, {"measurement": "PCB plasma concentration, Mean [±SD] control", "setting": "[1]; control group (background exposure)", "value": "0.022 ± 0.012", "unit": "ng/mL"}, {"measurement": "PCB plasma concentration, Geometric mean, Control", "setting": "[1]; control group, N 10", "value": 0.019, "unit": "ng/mL"}, {"measurement": "t value", "setting": "CYP2C9", "value": "1,339"}, {"measurement": "β (standardized regression coefficient)", "setting": "CYP2C9", "value": "0,301"}, {"measurement": "t value", "setting": "CYP2C9; PM excl", "value": "1,228"}, {"measurement": "β (standardized regression coefficient)", "setting": "CYP2C9; PM excl", "value": "0,286"}, {"measurement": "effect on CYP1A2 mRNA expression", "setting": "CYP1A2 mRNA", "value": "did not significantly alter CYP1A2 mRNA levels"}, {"measurement": "t value", "setting": "CYP2D6", "value": "2,169"}, {"measurement": "β (standardized regression coefficient)", "setting": "CYP2D6", "value": "0,455"}]}]}
